The source made the active and inactive calls. No cut-off for these calls is given here.
Test system: Bacillus cereus
Test: Inhibition of metallo-beta-lactamases Bc2
Settings: not given
In the case of `O=C(NO)c1ccccc1`, the Activity is reported as “inactive”.

Same assay, conditions: concentration not given here
In the case of `O=C(O)CCC(=O)NO`, the inhibition is reported as less than 10%. In the case of `O=C(O)c1cccc(C(=O)NO)c1`, the inhibition is reported as less than 10%.

Test system: not listed separately
Test: Inhibition of metallo-beta-lactamases L1
Settings: not given
With `O=C(NO)c1ccccc1` the Activity was “inactive”.

Same assay, conditions: concentration not given here
In the case of `O=C(O)CCC(=O)NO`, the inhibition is reported as less than 10%. In the case of `O=C(O)c1cccc(C(=O)NO)c1`, the inhibition is reported as less than 10%.

Biological target: Metallo-beta-lactamase type 2 (Pseudomonas aeruginosa) (UniProt Q7WYA8)
Sequence (Q7WYA8 whole entry): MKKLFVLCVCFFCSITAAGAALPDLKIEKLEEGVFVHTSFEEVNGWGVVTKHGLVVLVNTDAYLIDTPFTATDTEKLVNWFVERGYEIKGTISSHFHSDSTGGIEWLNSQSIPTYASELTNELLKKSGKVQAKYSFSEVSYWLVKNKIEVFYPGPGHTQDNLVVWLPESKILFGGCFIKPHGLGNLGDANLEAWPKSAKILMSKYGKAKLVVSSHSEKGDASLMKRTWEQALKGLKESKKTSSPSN
Test: Inhibition of metallo-beta-lactamases IMP1 assessed as residual activity at 100 uM
Settings: not given
Work on `CNC(=O)c1cc(O)cc(C(=O)NO)c1` yielded an Activity of 93%. Work on `O=C(NO)c1cc(O)cc(C(=O)N2CCCC2)c1` yielded an Activity of 85%. For `CCN(CC)C(=O)c1cc(O)cc(C(=O)NO)c1`, the Activity was 85%. `O=C(NO)c1cc(O)cc(C(=O)NCc2ccccc2)c1` gave an Activity of 81%. Work on `O=C(O)c1cc(O)cc(C(=O)NO)c1` yielded an Activity of 67%. For `O=C(NO)c1cc(O)cc(C(=O)Nc2ccccc2)c1`, the Activity was 92%. `O=C(O)c1cc(O)cc(C(=O)c2ccc(O)cc2)c1` gave an Activity of 100%. `O=C(NO)c1cc(O)cc(C(=O)c2ccc(O)cc2)c1` gave an Activity of 83%.

Biological target: Metallo-beta-lactamase type 2 (Aeromonas hydrophila) (UniProt P26918)
Sequence (P26918 whole entry): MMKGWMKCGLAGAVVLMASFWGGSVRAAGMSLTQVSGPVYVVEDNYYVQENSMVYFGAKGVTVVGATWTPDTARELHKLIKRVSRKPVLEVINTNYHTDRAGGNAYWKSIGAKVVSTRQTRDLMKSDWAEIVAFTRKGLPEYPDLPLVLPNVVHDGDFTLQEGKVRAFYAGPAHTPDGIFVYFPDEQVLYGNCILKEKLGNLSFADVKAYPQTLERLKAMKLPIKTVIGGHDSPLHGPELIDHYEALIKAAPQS
Test: Inhibition of metallo-beta-lactamases CphA
Settings: not given
For `O=C(NO)c1ccccc1`, the Activity was “inactive”.

Same assay, conditions: concentration not given here
In the case of `O=C(O)CCC(=O)NO`, the inhibition is reported as less than 10%. With `O=C(O)c1cccc(C(=O)NO)c1` the inhibition was less than 10%.

Test system: Bacillus cereus
Test: Inhibition of metallo-beta-lactamases Bc2 assessed as residual activity at 100 uM
Settings: not given
`CNC(=O)c1cc(O)cc(C(=O)NO)c1` showed an Activity of 103%. In the case of `O=C(NO)c1cc(O)cc(C(=O)N2CCCC2)c1`, the Activity is reported as 100%. In the case of `CCN(CC)C(=O)c1cc(O)cc(C(=O)NO)c1`, the Activity is reported as 101%. Work on `O=C(NO)c1cc(O)cc(C(=O)NCc2ccccc2)c1` yielded an Activity of 103%. Work on `O=C(O)c1cc(O)cc(C(=O)NO)c1` yielded an Activity of 93%. With `O=C(NO)c1cc(O)cc(C(=O)Nc2ccccc2)c1` the Activity was 82%. For `O=C(O)c1cc(O)cc(C(=O)c2ccc(O)cc2)c1`, the Activity was 86%. Compound `O=C(NO)c1cc(O)cc(C(=O)c2ccc(O)cc2)c1` has an Activity of 91%.

Test system: not listed separately
Test: Inhibition of metallo-beta-lactamases L1 assessed as residual activity at 100 uM
Settings: not given
Compound `CNC(=O)c1cc(O)cc(C(=O)NO)c1` has an Activity of 96%. Work on `O=C(NO)c1cc(O)cc(C(=O)N2CCCC2)c1` yielded an Activity of 92%. In the case of `CCN(CC)C(=O)c1cc(O)cc(C(=O)NO)c1`, the Activity is reported as 93%. Work on `O=C(NO)c1cc(O)cc(C(=O)NCc2ccccc2)c1` yielded an Activity of 95%. `O=C(O)c1cc(O)cc(C(=O)NO)c1` showed an Activity of 97%. In the case of `O=C(NO)c1cc(O)cc(C(=O)Nc2ccccc2)c1`, the Activity is reported as 103%. With `O=C(O)c1cc(O)cc(C(=O)c2ccc(O)cc2)c1` the Activity was 107%. For `O=C(NO)c1cc(O)cc(C(=O)c2ccc(O)cc2)c1`, the Activity was 102%.

Test system: Fluoribacter gormanii
Test: Inhibition of metallo-beta-lactamases FEZ1 assessed as residual activity at 100 uM
Settings: not given
For `CNC(=O)c1cc(O)cc(C(=O)NO)c1`, the Activity was 47%. Work on `O=C(NO)c1cc(O)cc(C(=O)N2CCCC2)c1` yielded an Activity of 64%. `CCN(CC)C(=O)c1cc(O)cc(C(=O)NO)c1` gave an Activity of 66%. `O=C(NO)c1cc(O)cc(C(=O)NCc2ccccc2)c1` showed an Activity of 46%. In the case of `O=C(O)c1cc(O)cc(C(=O)NO)c1`, the Activity is reported as 92%. With `O=C(NO)c1cc(O)cc(C(=O)Nc2ccccc2)c1` the Activity was 42%. In the case of `O=C(O)c1cc(O)cc(C(=O)c2ccc(O)cc2)c1`, the Activity is reported as 67%. `O=C(NO)c1cc(O)cc(C(=O)c2ccc(O)cc2)c1` gave an Activity of 15%.

Test system: Fluoribacter gormanii
Test: (§1) Inhibition of metallo-beta-lactamases FEZ1
Set-up: concentration or dose not given beside the values
Settings: concentration not given here
With `CNC(=O)c1cc(O)cc(C(=O)NO)c1` the inhibition was 53%. In the case of `O=C(NO)c1cc(O)cc(C(=O)N2CCCC2)c1`, the inhibition is reported as 36%. `CCN(CC)C(=O)c1cc(O)cc(C(=O)NO)c1` showed an inhibition of 34%. `O=C(O)CCC(=O)NO` showed an inhibition of less than 10%. For `O=C(NO)c1cc(O)cc(C(=O)NCc2ccccc2)c1`, the inhibition was 54%. `O=C(NO)c1ccccc1` gave an inhibition of 55%. In the case of `O=C(NO)c1ccc(O)cc1`, the inhibition is reported as 53%. For `O=C(NO)c1cc(O)cc(C(=O)Nc2ccccc2)c1`, the inhibition was 58%. In the case of `O=C(O)c1cccc(C(=O)NO)c1`, the inhibition is reported as less than 10%. For `O=C(NO)c1ccccc1O`, the inhibition was 45%. In the case of `O=C(NO)c1cccc(O)c1`, the inhibition is reported as 64%.

Biological target: not listed separately
Test: as §1
Set-up: species or system Fluoribacter gormanii
Settings: not given
Compound `O=C(NO)c1cc(O)cc(O)c1` has a Ki of 13.3 µM. Work on `O=C(NO)c1cccc(O)c1` yielded a Ki of 17.9 µM.

Biological target: Metallo-beta-lactamase type 2 (Pseudomonas aeruginosa) (UniProt Q7WYA8)
Test: Inhibition of metallo-beta-lactamases IMP1
Settings: not given
With `O=C(NO)c1ccccc1` the Activity was “inactive”.

Same assay, conditions: concentration not given here
In the case of `O=C(O)CCC(=O)NO`, the inhibition is reported as less than 10%. With `O=C(O)c1cccc(C(=O)NO)c1` the inhibition was less than 10%.

Biological target: Metallo-beta-lactamase type 2 (Aeromonas hydrophila) (UniProt P26918)
Test: Inhibition of metallo-beta-lactamases CphA assessed as residual activity at 100 uM
Settings: not given
In the case of `CNC(=O)c1cc(O)cc(C(=O)NO)c1`, the Activity is reported as 92%. Work on `O=C(NO)c1cc(O)cc(C(=O)N2CCCC2)c1` yielded an Activity of 86%. With `CCN(CC)C(=O)c1cc(O)cc(C(=O)NO)c1` the Activity was 90%. Compound `O=C(NO)c1cc(O)cc(C(=O)NCc2ccccc2)c1` has an Activity of 81%. Work on `O=C(O)c1cc(O)cc(C(=O)NO)c1` yielded an Activity of 79%. Compound `O=C(NO)c1cc(O)cc(C(=O)Nc2ccccc2)c1` has an Activity of 90%. Compound `O=C(O)c1cc(O)cc(C(=O)c2ccc(O)cc2)c1` has an Activity of 83%. `O=C(NO)c1cc(O)cc(C(=O)c2ccc(O)cc2)c1` showed an Activity of 84%.
